Measured values: patent US20250066290A1, “DHODH INHIBITORS CONTAINING A CARBOXYLIC ACID BIOISOSTERE” (IMMUNIC AG, priority 2021, published 2025)
In brackets after ≈: the same amount, converted by molar mass. Where two headings read alike, the source gives them in different places.

Experiments:
SARS-CoV-2 = SARS-CoV-2 viral replication (YFP) assay; type: cell-based; details: Severe acute respiratory syndrome coronavirus 2, read-out: EC50 range
[1] = biological target: N-terminally truncated recombinant hDHODH enzyme (Homo sapiens, UniProt Q02127); assay: biochemical; type: biochemical
Protocol: Briefly, the hDHODH concentration was adjusted in a way that an average slope of approximately 0.2 AU/min served as the positive control (e.g. without inhibitor). The standard assay mixture contained 60 μM 2,6-dichloroindophenol, 50 μM decylubiquinone and 100 μM dihydroorotate. The hDHODH enzyme with or without at least six different concentrations of the compounds was added and measurements were performed in 50 mM TrisHCl, 150 mM KCl and 0.1% Triton X-100 at pH 8.0 and at 30° C. The reaction was started by adding dihydroorotate and measuring the absorption at 600 nm for 2 min. For the determination of the IC50 values, each data point was recorded in triplicate. […].

[2] = Metabolic stability in rat liver microsomes; details: SD
Description: (§1) The metabolism was monitored by HPLC-MS/MS. Verapamil served as positive control.

[3] = Metabolic stability in human liver microsomes
Description: as §1

[4] = Rat pharmacokinetics, oral cassette dosing; design: species or system Sprague Dawley rats; details: Sprague Dawley, in vivo; for AUC(0-t) / Cmax / AUC(0-inf): female rats, oral cassette; for AUC(0-t): 0 to 8 h; for Cmax: blood; for AUC(0-inf): calculated to infinity; for half-life: female, po
Protocol: The pharmacokinetics of compounds of the present invention was evaluated in 3 female Sprague Dawley rats (8 week old) after oral cassette dosing (vehicle: 5% solutol/95% NaCl solution (at 0.9% saline concentration; application volume: 5 mL/kg) to asses the exposure of the test items. At each designated time point (0.25, 0.5, 1, 2, 4 and 8 h after dosing), 20 μL blood were collected from the tail vein into Li-heparin tubes, cooled on ice and stored at −20° C. until processed for LC-MS analysis. The obtained data is as follows: […]

[5] = Mouse pharmacokinetics, female, deuteration matched pair analysis; type: in vivo, mice (C57BL/6J); details: for AUC(0-t) / Cmax / half-life: C57BL/6J, mouse, in vivo; for AUC(0-t) / Cmax / F: female mice; for AUC(0-t): 0 to 8 h; for Cmax: 5 mg/kg oral, 1 mg/kg intravenous cassette; for F: bioavailability; for half-life: female
Protocol: In another matched pair analysis the benefit of deuteration of the N-methoxyacetamide moiety was tested: the pharmacokinetic properties of the compounds were evaluated in 3 female mice (C57BL/6J, 8 week old) after oral or intravenous cassette dosing to assess the oral bioavailability. Dose was 5 mg/kg (oral) and 1 mg/kg (intravenous), application volume was 5 mL/kg (oral) and 2 mL/kg (intravenous), vehicle was 5% solutol, 95% NaCl solution (at 0.9% saline concentration) for oral and 5% solutol, 5% ethanol, 90% NaCl solution (at 0.9% saline concentration) for intravenous application. At each designated time point (0.25, 0.5, 1, 2, 4 and 8 h after dosing for oral; 0.083, 0.25, 0.5, 1, 4 and 8 h after dosing for intravenous), 20 μL whole blood were collected from the tail vein into Li-heparin tubes, frozen on dry ice within 1-2 minutes of sampling and stored at −20° C. until processed for LC-MS analysis.

[6] = Kinetic aqueous solubility in PBS at pH 7.4; details: pH 7.4, aqueous buffer, kinetic from dmso stock
[7] = Partition coefficient log D (n-octanol/PBS at pH 7.4); type: physicochemical; details: n-octanol/PBS at pH 7.4; read-out: logD
Protocol: The total amount of compound was determined as the peak area of the principal peak in a calibration standard (100 μM) containing organic solvent (MeOH/water, 60/40 v/v). The amount of compound in buffer was determined as the combined, volume-corrected and weighted areas of the corresponding peaks in the aqueous phases of three organic-aqueous samples of different composition. An automated weighting system was used to ensure the preferred use of raw data from those samples with well quantifiable peak signals. The amount of compound in organic was calculated by subtraction.
Subsequently, the partition coefficient (log D, n-octanol/PBS at pH 7.4) was calculated as the Log10 of the amount of compound in the organic phase divided by the amount of compound in the aqueous phase (Eurofins Discovery Services Item #417).

[8] = biological target: human URAT1 uptake transporter (Homo sapiens (Human), UniProt Q96S37); assay: Human URAT1 uptake transporter assay (MDCKII-URAT1-LV, SOLVO); type: cell-based; details: 10 μM compound, 20 μM uric acid probe substrate
Protocol: In the human URAT1 uptake transporter assay (host cell line: MDCKII), the accumulation of the probe substrate in the presence of a DHODH inhibitor (at a concentration of 10 μM) into cells was measured. The assay was executed at SOLVO with catalogue number MDCKII-URAT1-LV. 20 μM uric acid served as probe substrate. Reference inhibitor was benzbromarone at a concentration of 300 μM, which served as internal control.

[9] = Mouse pharmacokinetics, male and female, cassette dosing; type: in vivo, mice (C57BL/6J); details: for AUC / Cmax / half-life: C57BL/6J, mouse, in vivo; for AUC: 0 to 24 h; for Cmax: 5 mg/kg oral, 1 mg/kg intravenous cassette; for F: bioavailability
Protocol: The pharmacokinetics of the compounds of the present invention was evaluated in 3 male and 3 female mice (C57BL/6J, 8 week old) after oral or intravenous cassette dosing to assess the oral bioavailability. Dose was 5 mg/kg (oral) and 1 mg/kg (intravenous), application volume was 5 mL/kg (oral) and 0.5 mL/kg (intravenous), vehicle was 5% solutol, 95% NaCl solution (at 0.9% saline concentration) for oral and 5% solutol, 5% ethanol, 90% NaCl solution (at 0.9% saline concentration) for intravenous. At each designated time point (0.5, 1, 2, 4, 8 and 24 h after dosing), 20 μL whole blood were collected from the tail vein into Li-heparin tubes, frozen on dry ice within 1-2 minutes of sampling and stored at −20° C. until processed for LC-MS analysis.

[10] = human DHODH assay, read-out: IC50 range

Chain of N-terminally truncated recombinant hDHODH enzyme (Q02127 whole entry, looked up, the tested form may be a part): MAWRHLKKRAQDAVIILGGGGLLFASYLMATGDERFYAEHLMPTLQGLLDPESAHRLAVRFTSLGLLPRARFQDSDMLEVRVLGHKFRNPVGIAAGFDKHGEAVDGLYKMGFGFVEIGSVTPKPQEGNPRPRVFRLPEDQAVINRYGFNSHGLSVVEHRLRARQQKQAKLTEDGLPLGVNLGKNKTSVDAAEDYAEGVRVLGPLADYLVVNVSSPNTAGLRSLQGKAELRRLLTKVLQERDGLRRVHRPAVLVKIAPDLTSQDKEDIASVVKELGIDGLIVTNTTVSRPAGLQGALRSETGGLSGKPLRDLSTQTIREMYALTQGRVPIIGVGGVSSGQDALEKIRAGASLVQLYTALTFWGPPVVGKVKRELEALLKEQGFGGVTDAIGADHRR
Chain of human URAT1 uptake transporter (Q96S37 whole entry): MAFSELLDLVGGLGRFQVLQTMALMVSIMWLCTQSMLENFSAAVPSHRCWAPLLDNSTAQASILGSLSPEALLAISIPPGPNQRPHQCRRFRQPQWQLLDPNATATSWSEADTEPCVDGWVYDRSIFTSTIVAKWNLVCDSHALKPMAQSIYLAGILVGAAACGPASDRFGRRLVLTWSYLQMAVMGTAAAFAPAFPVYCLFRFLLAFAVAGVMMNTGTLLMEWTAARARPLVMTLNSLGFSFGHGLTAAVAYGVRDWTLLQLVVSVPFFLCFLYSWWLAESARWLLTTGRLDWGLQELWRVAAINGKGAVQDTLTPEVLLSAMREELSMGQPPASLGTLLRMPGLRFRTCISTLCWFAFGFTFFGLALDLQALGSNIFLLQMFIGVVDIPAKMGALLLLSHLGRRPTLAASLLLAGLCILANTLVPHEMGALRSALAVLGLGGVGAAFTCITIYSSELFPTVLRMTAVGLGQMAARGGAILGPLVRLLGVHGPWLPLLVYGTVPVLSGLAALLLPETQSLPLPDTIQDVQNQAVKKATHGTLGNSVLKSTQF

[2H]C([2H])([2H])Oc1cccc(-c2c(F)c(F)c(NC(=O)C3=C(C(=O)NS(C)(=O)=O)CCC3)c(F)c2F)c1 [Example 1/7]
EC50 (SARS-CoV-2): < 10000 nM | IC50 [1, 10]: < 100 nM | microsomal CLint ([2]; female): 30.5 µL/min/mg | microsomal CLint ([2]; male): 20 µL/min/mg | microsomal CLint ([3]; female): 4.01 µL/min/mg | microsomal CLint ([3]; male): 1.32 µL/min/mg

CONC(=O)C1=C(C(=O)Nc2c(F)c(F)c(-c3cccc(OC)c3)c(F)c2F)COC1 [Example 5/9]
IC50 [1, 10]: < 100 nM | AUC(0-t) [4]: 91 µM·h | Cmax [4]: 17 µM | AUC(0-inf) [4]: 185 µM·h | half-life [4]: 6.6 h

[2H]C([2H])([2H])Oc1cccc(-c2cc(F)c(NC(=O)c3ccsc3C(=O)NOCCO)c(F)c2)c1 [Example 9/1]
EC50 (SARS-CoV-2): < 1000 nM | IC50 [1, 10]: < 100 nM | microsomal CLint ([2]; female): 52.8 µL/min/mg | microsomal CLint ([2]; male): 162 µL/min/mg | microsomal CLint ([3]; female): 40.4 µL/min/mg | microsomal CLint ([3]; male): 67.2 µL/min/mg

CONC(=O)c1sccc1C(=O)Nc1c(F)cc(-c2cccc(OC)c2)cc1F [Example 9/9]
IC50 [1, 10]: < 100 nM | microsomal CLint ([2]; female): 69.3 µL/min/mg | microsomal CLint ([2]; male): 192 µL/min/mg | microsomal CLint ([3]; female): 66.1 µL/min/mg | microsomal CLint ([3]; male): 93.9 µL/min/mg

COc1cccc(-c2c(F)c(F)c(NC(=O)C3=C(C(=O)NS(C)(=O)=O)CCC3)c(F)c2F)c1 [Example 1/13]
IC50 [1, 10]: < 100 nM | microsomal CLint ([2]; female): 35.4 µL/min/mg | microsomal CLint ([2]; male): 25.5 µL/min/mg | microsomal CLint ([3]; female): 10.3 µL/min/mg | microsomal CLint ([3]; male): 14.4 µL/min/mg

[2H]C([2H])([2H])Oc1cccc(-c2c(F)c(F)c(NC(=O)C3=C(C(=O)NOC)COC3)c(F)c2F)c1 [Example 5/4]
EC50 (SARS-CoV-2): < 1000 nM | IC50 [1, 10]: < 100 nM | AUC(0-t) [5]: 106000 ng·h/mL | Cmax [5]: 18000 ng/mL | F [5]: 39% | half-life [5]: > 8 h | AUC(0-t) [4]: 125 µM·h | Cmax [4]: 21 µM | AUC(0-inf) [4]: 271 µM·h | half-life [4]: 7.9 h

[2H]C([2H])([2H])ONC(=O)c1sccc1C(=O)Nc1c(F)c(F)c(-c2cccc(OC([2H])([2H])[2H])c2)c(F)c1F [9/6]
EC50 (SARS-CoV-2): < 1000 nM | IC50 [1, 10]: < 100 nM | AUC(0-t) [5]: 25000 ng·h/mL | Cmax [5]: 6700 ng/mL | F [5]: 76% | half-life [5]: 2.5 h

[2H]C([2H])([2H])ONC(=O)C1=C(C(=O)Nc2c(F)c(F)c(-c3cccc(OC([2H])([2H])[2H])c3)c(F)c2F)COC1 [Example 5/5]
EC50 (SARS-CoV-2): < 1000 nM | IC50 [1, 10]: < 100 nM | AUC(0-t) [5]: 165000 ng·h/mL | Cmax [5]: 70000 ng/mL | F [5]: 56% | half-life [5]: > 8 h | AUC(0-t) [4]: 113 µM·h | Cmax [4]: 19 µM | AUC(0-inf) [4]: 252 µM·h | half-life [4]: 8.4 h

[2H]C([2H])([2H])Oc1cccc(-c2cc(F)c(NC(=O)C3=C(C(=O)NS(N)(=O)=O)CCC3)c(F)c2)c1 [Example 2/1]
EC50 (SARS-CoV-2): > 50000 nM | IC50 [1, 10]: < 100 nM | solubility [6]: 235 µM (≈ 107 µg/mL) | logD [7]: 0.5 | human URAT1 uptake transporter stimulation @ 10 μM [8]: 22% | AUC ([9]; female mice): 8610 ng·h/mL | Cmax ([9]; female mice): 2280 ng/mL | AUC ([9]; male mice): 3070 ng·h/mL | Cmax ([9]; male mice): 1500 ng/mL | F ([9]; female mice): ♀ 144% | half-life ([9]; female): 2.4 h | F ([9]; male mice): ♂ 60% | half-life ([9]; male): 3.1 h

[2H]C([2H])([2H])Oc1cccc(-c2cc(F)c(NC(=O)C3=C(C(=O)NS(C)(=O)=O)CCC3)c(F)c2)c1 [Example 1/1]
EC50 (SARS-CoV-2): 25000 to 50000 nM | solubility [6]: 227 µM (≈ 103 µg/mL) | logD [7]: 0.9 | human URAT1 uptake transporter stimulation @ 10 μM [8]: <20%

O=C(Nc1c(F)c(F)c(-c2cccc(OC(F)(F)F)c2)c(F)c1F)C1=C(c2nn[nH]n2)CCC1 [Example 3, N-(2,3,5,6-Tetrafluoro-3′-(trifluoromethoxy)-[1,1′-biphenyl]-4-yl)-2-(2H-tetrazol-5-yl)cyclopent-1-ene-1-carboxamide]
EC50 (SARS-CoV-2): < 10000 nM | IC50 [1]: 100 to 1000 nM | solubility [6]: 207 µM (≈ 101 µg/mL) | human URAT1 uptake transporter stimulation @ 10 μM [8]: <20%
